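1) Cells in 96-well plates. 2) Compound, 48 h, 5 concentrations. 3) Linear interpolation between surrounding doses. 4) Unreached endpoint = highest concentration. At the GI50, growth is halved.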 Activity calls are given as the source filed them. Cut-off read from the data, not from the text of the source: active = GI50 up to about 1.1 µM and inactive = higher.
Tests used:
Test in all cases: NCI-60 cell line screen, 48 h
SNB-78 = test system: SNB-78
ACHN = test system: ACHN
MDA-N = test system: MDA-N
RPMI-8226 = test system: RPMI-8226
HOP-92 = test system: HOP-92
NCI-H226 = test system: NCI-H226
OVCAR-4 = test system: OVCAR-4
RXF 393 = test system: RXF 393
TK-10 = test system: TK-10
M19-MEL = test system: M19-MEL
HCC 2998 = test system: HCC 2998
SF-295 = test system: SF-295
XF498 = test system: XF498
HOP-62 = test system: HOP-62
SF-539 = test system: SF-539
HCT-116 = test system: HCT-116
NCI/ADR-RES = test system: NCI/ADR-RES
OVCAR-8 = test system: OVCAR-8
OVCAR-3 = test system: OVCAR-3
KM-20L2 = test system: KM-20L2
IGROV-1 = test system: IGROV-1
T47D = test system: T47D
RXF 631 = test system: RXF 631
SF-268 = test system: SF-268
HL-60 = test system: HL-60
SNB-19 = test system: SNB-19
PC-3 = test system: PC-3
Malme-3M = test system: Malme-3M
UO-31 = test system: UO-31
A498 = test system: A498
786-0 = test system: 786-0
MOLT-4 = test system: MOLT-4
SK-OV-3 = test system: SK-OV-3
SK-MEL-28 = test system: SK-MEL-28
HT-29 = test system: HT-29
LOX IMVI = test system: LOX IMVI
NCI-H23 = test system: NCI-H23
OVCAR-5 = test system: OVCAR-5
KM12 = test system: KM12
SW-620 = test system: SW-620
NCI-H460 = test system: NCI-H460
LXFL 529 = test system: LXFL 529
COLO 205 = test system: COLO 205
K562 = test system: K562
HCT-15 = test system: HCT-15
SK-MEL-2 = test system: SK-MEL-2
DLD-1 = test system: DLD-1
NCI-H522 = test system: NCI-H522
MCF7 = test system: MCF7
Hs-578T = test system: Hs-578T
BT-549 = test system: BT-549
DMS-114 = test system: DMS-114
MDA-MB-435 = test system: MDA-MB-435
EKVX = test system: EKVX
CAKI-1 = test system: CAKI-1
HOP-18 = test system: HOP-18
M14 = test system: M14
MDA-MB-231 = test system: MDA-MB-231
UACC-257 = test system: UACC-257
CCRF-CEM = test system: CCRF-CEM
SK-MEL-5 = test system: SK-MEL-5
A549 = test system: A549
SN12C = test system: SN12C
DU-145 = test system: DU-145
U-251 = test system: U-251
UACC-62 = test system: UACC-62
SR = test system: SR
SNB-75 = test system: SNB-75

With `CCCCC/C=C1\CCC(CN2CCOCC2)C1=O` (stereo not drawn) the GI50 (SNB-78) was 12.6 µM (inactive), the GI50 (ACHN) was 15.5 µM (inactive) and the GI50 (MDA-N) was 8.24 µM (inactive). The GI50 (RPMI-8226) was 0.449 µM (active), the GI50 (HOP-92) was 15.7 µM (inactive) and the GI50 (NCI-H226) was 16.9 µM (inactive). The GI50 (OVCAR-4) was 16.2 µM (inactive), the GI50 (RXF 393) was 5.66 µM (inactive) and the GI50 (TK-10) was 7.59 µM (inactive). The GI50 (M19-MEL) was 19 µM (inactive), the GI50 (HCC 2998) was 12.5 µM (inactive) and the GI50 (SF-295) was 16.8 µM (inactive). For the same molecule, the GI50 (XF498) was 17.4 µM (inactive), the GI50 (HOP-62) was 23.1 µM (inactive) and the GI50 (SF-539) was 14.8 µM (inactive). The GI50 (HCT-116) was 9.35 µM (inactive), the GI50 (NCI/ADR-RES) was 3.94 µM (inactive) and the GI50 (OVCAR-8) was 7.26 µM (inactive). For the same molecule, the GI50 (OVCAR-3) was 5.9 µM (inactive), the GI50 (KM-20L2) was 13.8 µM (inactive) and the GI50 (IGROV-1) was 13.8 µM (inactive). For the same molecule, the GI50 (T47D) was 2.72 µM (inactive), the GI50 (RXF 631) was 12.1 µM (inactive) and the GI50 (SF-268) was 12.2 µM (inactive). The GI50 (HL-60) was 2.26 µM (inactive), the GI50 (SNB-19) was 16.8 µM (inactive) and the GI50 (PC-3) was 16.9 µM (inactive). For the same molecule, the GI50 (Malme-3M) was 9.62 µM (inactive), the GI50 (UO-31) was 12.4 µM (inactive) and the GI50 (A498) was 17.7 µM (inactive). For the same molecule, the GI50 (786-0) was 2.58 µM (inactive), the GI50 (MOLT-4) was 2.43 µM (inactive) and the GI50 (SK-OV-3) was 18.5 µM (inactive). For the same molecule, the GI50 (SK-MEL-28) was 7.91 µM (inactive), the GI50 (HT-29) was 10.9 µM (inactive) and the GI50 (LOX IMVI) was 4.84 µM (inactive). For the same molecule, the GI50 (NCI-H23) was 11.2 µM (inactive), the GI50 (OVCAR-5) was 18.6 µM (inactive) and the GI50 (KM12) was 3.49 µM (inactive). For the same molecule, the GI50 (SW-620) was 3.2 µM (inactive), the GI50 (NCI-H460) was 22.1 µM (inactive) and the GI50 (LXFL 529) was 5.32 µM (inactive). The GI50 (COLO 205) was 3.67 µM (inactive), the GI50 (K562) was 2.36 µM (inactive) and the GI50 (HCT-15) was 5.32 µM. For the same molecule, the GI50 (SK-MEL-2) was 13.7 µM (inactive), the GI50 (DLD-1) was 5.94 µM (inactive) and the GI50 (NCI-H522) was 2.43 µM (inactive). For the same molecule, the GI50 (MCF7) was 1.6 µM (inactive), the GI50 (Hs-578T) was 4.25 µM (inactive) and the GI50 (BT-549) was 14.7 µM (inactive). For the same molecule, the GI50 (DMS-114) was 13.6 µM (inactive), the GI50 (MDA-MB-435) was 5.25 µM (inactive) and the GI50 (EKVX) was 17.5 µM (inactive). For the same molecule, the GI50 (CAKI-1) was 5.28 µM (inactive), the GI50 (HOP-18) was 14.2 µM (inactive) and the GI50 (M14) was 6.7 µM (inactive). For the same molecule, the GI50 (MDA-MB-231) was 4.7 µM (inactive), the GI50 (UACC-257) was 9.79 µM (inactive) and the GI50 (CCRF-CEM) was 2.9 µM (inactive). The GI50 (SK-MEL-5) was 15.4 µM (inactive), the GI50 (A549) was 20.7 µM (inactive) and the GI50 (SN12C) was 15.2 µM (inactive). The GI50 (DU-145) was 14.6 µM (inactive), the GI50 (U-251) was 10.8 µM (inactive) and the GI50 (UACC-62) was 12.4 µM (inactive). For the same molecule, the GI50 (SR) was 3.52 µM (inactive) and the GI50 (SNB-75) was 14.8 µM (inactive).

— ChEMBL document CHEMBL1201862, “PubChem BioAssay data set” (2004)
